Patent US11578110B2, “Compounds for inducing tissue formation and uses thereof” (HISTIDE AG, priority 2015, dated 2023)

System: hMSCs
Assay: STRO-1 stemness marker expression in hMSCs (immunostaining, ImageJ quantification)
Assay type: cell-based, Human
Settings: SEQ ID NO: 1 to 49 tested in combination with a bioactive carrier (titanium, ceramics, PEEK, hydrogel, etc.)
Procedure: The cells were first fixed for 20 min with 4% paraformaldehyde/PBS at 4° C. After fixation, the cells were permeabilized in PBS containing 1% Triton X-100 for 15 min. Runx2, Osterix, Stro-1, Vinculin, Phalloidin, Osteopontin, Sox2, Sox9 antibodies were visualized by treating the cells with 1% (v/v) specific monoclonal antibodies for 1 hour at 37° C. Then the samples were incubated with Alexa fluor® 568 or 647 (F(ab′)2 fragment of IgG(H+L)) during 30 min at room temperature. The cell nuclei were counterstained in 20 ng/mL DAPI for 10 min at room temperature.
For this type of quantification the freeware image analysis ImageJ® software was used. The raw image was first converted to an 8-bit file, and then the unsharp mask feature was used (settings 1:0.2) to remove the image background (rolling ball radius 10). After smoothing, the resulting image, which appears similar to the original photomicrograph but with minimal background, was then converted to a binary image by setting a threshold. Threshold values were determined empirically by selecting a setting, which gave the most accurate binary image for a subset of randomly selected photomicrographs. The cell area was determined by manual delineation on raw fluorescent images. Total contact area and mean contact area per cell were calculated by “analyse particles” in ImageJ®. A minimum of 30 cells per condition were analyzed. Stro-1, CD-34+, and CD-105 expressions were determined using this procedure.
hMSCs were cultured on conventional cell culture plastic plates with or without the presence in the cell culture media of different GFR-binding compounds as defined hereins (SEQ ID NO: 50 to 104) in solution. […] This was probed by Stro-1 immunostaining after cell fixation as described in the Methods section. The quantification of Stro-1 positive contact numbers and areas was performed as described in the Methods section. A minimum of 30 cells per condition were analyzed.
RMSD values are always calculated for a GFR-binding peptide sequence exempt from any bioactive-carrier-affinity-containing group as defined herein (e.g. cysteine, WWFWG, GTPGP, etc. . . . ). When needed i.e. when attachment to a bioactive carrier is contemplated, the bioactive-carrier-affinity-containing group is then present in the GFR-binding compound when it is biologically tested. Using the method detailed in the description, the RMSD of 57 previously reported peptide sequences have been determined (Table 6) and correlated with the expression of STRO-1 after grafted on a PET surface via a procedure as already described above. […] One should note that it is commonly admitted that the expression of STRO-1 in a cell is indicative of a cell that is in a substantially non-differentiated state and the decrease of its expression of at least about 20% is indicative of a cell that has started a processes of differentiation but which may not result in the differentiation of the cell. A decrease of more than 50% would be indicative of the presence of a significant shift towards a differentiated state. A decrease of more than 70% would be indicative of the presence of a very important shift towards a differentiated state. A sustained decrease (e.g. for at least 96 h) of more than 50% or 70% would be indicative of the presence of an even more important shift towards a differentiated state.
Likewise, using the method detailed in the description, the RMSD of 87 GFR-binding peptide sequence representatives of the invention have been determined (Table 7) and correlated with the expression of STRO-1 after grafted on a PET surface via a procedure as already described above. SEQ ID NO: 1 to 49 were tested in combination with a bioactive carrier as defined above in the Examples Section (i.e. titanium, ceramics, PEEK, hydrogel, etc. . . . ), whereas SEQ ID NO: 1143 to 1180 were tested in solution.

Sequence	STRO-1 expression
AASKASSVPEKLSSLSILFF [SEQ ID NO: 41]	28%
AVPKASSAPTKLEPLPIVYY [SEQ ID NO: 36]	21%
KIPKASSVSQELEPLTILYY [SEQ ID NO: 37]	17%
KVGKASSVSQKLEPLTILYY [SEQ ID NO: 10]	32%
KVGKASSVPTKLSAISMLYL [SEQ ID NO: 20]	19%
HVPKPSSVPTKLSPISVLYK [SEQ ID NO: 16]	23%
AVPKASSAPTKLSAISMLYL [SEQ ID NO: 19]	19%
GGGKASSVPTKLSAISMLYL [SEQ ID NO: 21]	30%
GTPGPPTSVPTKLSPISVLYK (GFR-binding peptide) [SEQ ID NO: 29]	27%
KVGKASSVPTKLEPLTILYY [SEQ ID NO: 13]	26%
ASAAPSSVPAALSPISILYI [SEQ ID NO: 44]	15%

Same assay, conditions: SEQ ID NO: 1143 to 1180 tested in solution

Sequence	STRO-1 expression
GIPEPSSAPTRLEPISMLYL (GFR-binding peptide) [SEQ ID NO: 1164]	16%
AASKASSTPTDLNAISTLYF (GFR-binding peptide) [SEQ ID NO: 1158]	20%
RVPSTSSVPAEESNITVQIM (GFR-binding peptide) [SEQ ID NO: 1176]	26%
KIPKASSVSQKMEPLTMLYY (GFR-binding peptide) [SEQ ID NO: 1150]	20%
AASKASSVPEKMRPVQTRKI (GFR-binding peptide) [SEQ ID NO: 1179]	32%
KIPKASSTQVRLRPVQIRKI (GFR-binding peptide) [SEQ ID NO: 1153]	30%
NDEGLESVPEDLSSLSVLFF (GFR-binding peptide) [SEQ ID NO: 1143]	23%
GIPEPSSAPVGQEPLPMVYY (GFR-binding peptide) [SEQ ID NO: 1172]	28%
RVPSTSSTQVDLNAISVLYF (GFR-binding peptide) [SEQ ID NO: 1159]	23%
STPPTSSTPTKMSNITTQIM (GFR-binding peptide) [SEQ ID NO: 1175]	27%

Same assay, conditions: grafted on a PET surface

Sequence	STRO-1 expression
KIPKPSSAPTELSAISMC (Previously reported sequence) [SEQ ID NO: 1129, reference compound]	78%
APTKLNAISVLYFDDSSNVILKKYRNMIVKS (Previously reported sequence) [SEQ ID NO: 1126, reference compound]	84%
MALPQPRGSSLSKAPVVVAPCMALKRVNIRSIVFEVLKTMNQNCIHETPN (Previously reported sequence) [SEQ ID NO: 1123, reference compound]	82%
PIIYYVGRNVRVEQLSNMVVRRA (Previously reported sequence) [SEQ ID NO: 1088, reference compound]	98%
SFRTARANAPTGRSSLSGEKEQQEASTHS (Previously reported sequence) [SEQ ID NO: 1120, reference compound]	91%
VEQLSNMVVK (Previously reported sequence) [SEQ ID NO: 1086, reference compound]	98%
CVTKPLSSLLFPNWNTTTTPTPP (Previously reported sequence) [SEQ ID NO: 1102, reference compound]	92%
DPLPIIYYVGRNVRVEQLSNMVVRACKCS (Previously reported sequence) [SEQ ID NO: 1089, reference compound]	97%
PIIYYVGRNVRVEQLSNMVVRA (Previously reported sequence) [SEQ ID NO: 1087, reference compound]	92%
SATSRLALSDVPAELAA (Previously reported sequence) [SEQ ID NO: 1112, reference compound]	98%
SPISILVVPELDASLPEKRPSLDGFEALLVYNAPKA (Previously reported sequence) [SEQ ID NO: 1106, reference compound]	82%
CCAPTQLSAISVLYFDDSSNVILKKYRNMVVRACGCR (Previously reported sequence) [SEQ ID NO: 1140, reference compound]	82%

System: Human Hematopoietic Stem Cells
Assay: CD-34+ stemness marker expression (immunostaining, ImageJ quantification)
Assay type: cell-based
Settings: peptides grafted on a PET surface; 48 hours

Sequence	CD34+ Expression
AASKASSAPTKMSPINILYF (GFR-binding peptide) [SEQ ID NO: 1079]	30%
RVPSTSSVPTDLSSLSILFF (GFR-binding peptide) [SEQ ID NO: 1072]	26%
RVPSTSSVPQQLNAISTLYF (GFR-binding peptide) [SEQ ID NO: 1074]	32%
AASKASSVPTKMEPISTLYL (GFR-binding peptide) [SEQ ID NO: 1078]	30%
RVPSTSSTPTKMKPLSILYV (GFR-binding peptide) [SEQ ID NO: 1080]	31%
AASKASSVPQQLSSLSTLFF (GFR-binding peptide) [SEQ ID NO: 1073]	29%
KIPKASSTPTRLRSVKMAKV (GFR-binding peptide) [SEQ ID NO: 1083]	17%
RVPSTSSTQVRLSPISMLFI (GFR-binding peptide) [SEQ ID NO: 1077]	24%
KIPKASSVPEELEPLPTVYY (GFR-binding peptide) [SEQ ID NO: 1081]	33%
RVPSTSSVPTELSAISVLYL (GFR-binding peptide) [SEQ ID NO: 1071]	29%
AASKASSSRVEESATSTLYY (GFR-binding peptide) [SEQ ID NO: 1075]	28%
KIPKASSTPTGQSNITMQIM (GFR-binding peptide) [SEQ ID NO: 1082]	18%
RVPSTSSAPVEESPISTLYI (GFR-binding peptide) [SEQ ID NO: 1076]	27%
KIPKASSVPTKMRPVQMRKI (GFR-binding peptide) [SEQ ID NO: 1084]	18%
AASKASSVPAKMRPVQTRKI (GFR-binding peptide) [SEQ ID NO: 1085]	19%

System: hMSCs
Assay: Chondrocyte differentiation of hMSCs on modified hydrogels (Sox9, Aggrecan)
Assay type: cell-based, Human
Settings: 96 hours, hydrogel 14 kPa covalently modified
Procedure: Total RNA was extracted by using the RNeasy total RNA kit (Qiagen®) according to the manufacturer's instructions. Purified total RNA was used as a template in order to make cDNA by a reverse transcription reaction (Gibco Brl®) with random primers (Invitrogen®). The cDNA was then used as a template for a real-time PCR amplification in the presence of SYBR green reagents (Bio-Rad®) by using a thermocycler (iCycler, Biorad®). Data were analyzed with the iCycler IQ™® software and compared by the ΔΔCt method. Briefly, the mean Ct value of the target gene was normalized to its averaged Ct values of the housekeeping gene (HPRT) to give a ΔCt value, which was then normalized to a control sample to obtain a ΔΔCt value.
Total RNA was extracted by using the RNeasy Mini Kit (Qiagen) and […] RNA was used for cDNA synthesis with AMV kit (Invitrogen®) according to the manufacturer' instructions. Semi-quantitative reverse transcriptase-polymerase chain reaction (RT-PCR) was performed with Taq DNA Polymerase (Invitrogen®) in a thermocycler (Bio-Rad®). The cDNA input was normalized to […] (HPRT). The PCR products were analyzed on 2% agarose gels. For the Aggrecan gene, the PCR bands were densitometrically quantified by using the BioCapt software (Vilber). Values were normalized to HPRT, and results were reported as relative gene expression.
For that a semi-quantitative RT-PCR was performed as described in the Methods section for the Aggrecan gene and a Quantitative Real Time PCR for Sox9.

Sequence	expression of the Sox9 protein
AVPKASSAPTKLEPLPIVYY [SEQ ID NO: 36]	observed
KIPKASSVSQELEPLTILYY [SEQ ID NO: 37]	observed

Same assay, conditions: 96 hours, hydrogel 14 kPa covalently modified, semi-quantitative RT-PCR

Sequence	Aggrecan gene expression
AVPKASSAPTKLEPLPIVYY [SEQ ID NO: 36]	increased expression
KIPKASSVSQELEPLTILYY [SEQ ID NO: 37]	increased expression

System: Hair Follicle Stem Cells
Assay: Activation of hair follicle stem cells on modified hydrogels (Sox2, BMP-6 release)
Assay type: cell-based, Mouse
Settings: hydrogel 73 kPa covalently modified

Sequence	BMP-6 release in the cell culture medium	Sox2 protein expression
AASKASSVPEKLSSLSILFF [SEQ ID NO: 41]	decrease	increase
